Experimental data taken from patent US5026848A, “Novel generation of heteroaryloxyalkyl heterocycles with antipicornaviruses activities” (Synphar Laboratories Incorporated, priority 1988, dated 1991).
Values after ≈ are worked out from the molar mass of the structure shown. Where two headings read alike, the source gives them in different places.

What was measured:
Coxsacki-B4 = assay: Activity against other picornaviruses, Coxsacki-B4; assay type: cell-based; settings: Enterovirus, read-out: MIC 50 Cox. B4
Rhinovirus 17 = assay: Anti-rhinovirus activity, cytopathic effect inhibition / neutral red dye uptake, type 17; assay type: cell-based; settings: Enterovirus, WI-38; Table II; read-out: MIC 50 Rhinovirus Type 17
Coxsacki-A21 = assay: Activity against other picornaviruses, Coxsacki-A21; assay type: cell-based; settings: Enterovirus, read-out: MIC 50 Cox. A21
HRV-1A and HRV-39 = assay: Anti-rhinovirus activity against HRV-1A and HRV-39; settings: in words
WI38 cells = assay: Toxicity to WI38 cells (change in morphology in / growth inhibition of 25% of the cells); assay type: cell-based
Rhinovirus 36 = assay: Anti-rhinovirus activity, cytopathic effect inhibition / neutral red dye uptake, type 36; assay type: cell-based; settings: Enterovirus, WI-38; Table II; read-out: MIC 50 Rhinovirus Type 36
Rhinovirus 1A = assay: Anti-rhinovirus activity, cytopathic effect inhibition / neutral red dye uptake, type 1A; assay type: cell-based; settings: Enterovirus, WI-38
Rhinovirus 53 = assay: Anti-rhinovirus activity, cytopathic effect inhibition / neutral red dye uptake, type 53; assay type: cell-based; settings: Enterovirus, WI-38; Table II; read-out: MIC 50 Rhinovirus Type 53
Rhinovirus 4 = assay: Anti-rhinovirus activity, cytopathic effect inhibition / neutral red dye uptake, type 4; assay type: cell-based; settings: Enterovirus, WI-38; Table II; one of seven commonest serotypes; read-out: MIC 50 Rhinovirus Type 4
Rhinovirus 23 = assay: Anti-rhinovirus activity, cytopathic effect inhibition / neutral red dye uptake, type 23; assay type: cell-based; settings: Enterovirus, WI-38; Table II; read-out: MIC 50 Rhinovirus Type 23
Rhinovirus 29 = assay: Anti-rhinovirus activity, cytopathic effect inhibition / neutral red dye uptake, type 29; assay type: cell-based; settings: Enterovirus, WI-38; Table II; one of seven commonest serotypes; read-out: MIC 50 Rhinovirus Type 29
Rhinovirus 86 = assay: Anti-rhinovirus activity, cytopathic effect inhibition / neutral red dye uptake, type 86; assay type: cell-based; settings: Enterovirus, WI-38; Table II; read-out: MIC 50 Rhinovirus Type 86
Echo-7 = assay: Activity against other picornaviruses, Echo-7; assay type: cell-based; settings: Enterovirus, read-out: MIC 50 Echo 7
Enterovirus serotypes = assay type: cell-based; settings: for All Enterovirus Serotypes (number of serotypes active / tested): Table III, numerator, denominator 7, but 5 for compound 8
Rhinovirus 15 = assay: Anti-rhinovirus activity, cytopathic effect inhibition / neutral red dye uptake, type 15; assay type: cell-based; settings: Enterovirus, WI-38; Table II; one of seven commonest serotypes; read-out: MIC 50 Rhinovirus Type 15
Rhinovirus 31 = assay: Anti-rhinovirus activity, cytopathic effect inhibition / neutral red dye uptake, type 31; assay type: cell-based; settings: Enterovirus, WI-38; Table II; one of seven commonest serotypes; read-out: MIC 50 Rhinovirus Type 31
Rhinovirus 30 = assay: Anti-rhinovirus activity, cytopathic effect inhibition / neutral red dye uptake, type 30; assay type: cell-based; settings: Enterovirus, WI-38; Table II; read-out: MIC 50 Rhinovirus Type 30
Echo-11 = assay: Activity against other picornaviruses, Echo-11; assay type: cell-based; settings: Enterovirus, read-out: MIC 50 Echo 11
Rhinovirus 2 = assay: Anti-rhinovirus activity, cytopathic effect inhibition / neutral red dye uptake, type 2; assay type: cell-based; settings: Enterovirus, WI-38; Table II; one of seven commonest serotypes; read-out: MIC 50 Rhinovirus Type 2
Rhinovirus 56 = assay: Anti-rhinovirus activity, cytopathic effect inhibition / neutral red dye uptake, type 56; assay type: cell-based; settings: Enterovirus, WI-38; Table II; read-out: MIC 50 Rhinovirus Type 56
Rhinovirus 39 = assay: Anti-rhinovirus activity, cytopathic effect inhibition / neutral red dye uptake, type 39; assay type: cell-based; settings: Enterovirus, WI-38
Coxsacki-B1 = assay: Activity against other picornaviruses, Coxsacki-B1; assay type: cell-based; settings: Enterovirus, read-out: MIC 50 Cox. B1
Rhinovirus 32 = assay: Anti-rhinovirus activity, cytopathic effect inhibition / neutral red dye uptake, type 32; assay type: cell-based; settings: Enterovirus, WI-38; Table II; read-out: MIC 50 Rhinovirus Type 32
Coxsacki-A9 = assay: Activity against other picornaviruses, Coxsacki-A9; assay type: cell-based; settings: Enterovirus, read-out: MIC 50 Cox. A9
Polio 1 = assay: microbe, parasite or virus in culture; assay type: cell-based; settings: Enterovirus, read-out: MIC 50 Polio 1
[1] = test system: 20 serotypes of rhinovirus; assay: Anti-rhinovirus activity against a panel of 20 serotypes; settings: Table II; numerator; denominator 20, but 10 for compound 8 and 6 for compound 30
Rhinovirus 1B = assay: Anti-rhinovirus activity, cytopathic effect inhibition / neutral red dye uptake, type 1B; assay type: cell-based; settings: Enterovirus, WI-38; Table II; one of seven commonest serotypes; read-out: MIC 50 Rhinovirus Type 1B
Rhinovirus 44 = assay: Anti-rhinovirus activity, cytopathic effect inhibition / neutral red dye uptake, type 44; assay type: cell-based; settings: Enterovirus, WI-38; Table II; read-out: MIC 50 Rhinovirus Type 44
Rhinovirus 63 = assay: Anti-rhinovirus activity, cytopathic effect inhibition / neutral red dye uptake, type 63; assay type: cell-based; settings: Enterovirus, WI-38; Table II; read-out: MIC 50 Rhinovirus Type 63
Rhinovirus 88 = assay: Anti-rhinovirus activity, cytopathic effect inhibition / neutral red dye uptake, type 88; assay type: cell-based; settings: Enterovirus, WI-38; Table II; read-out: MIC 50 Rhinovirus Type 88
Rhinovirus 49 = assay: Anti-rhinovirus activity, cytopathic effect inhibition / neutral red dye uptake, type 49; assay type: cell-based; settings: Enterovirus, WI-38; Table II; read-out: MIC 50 Rhinovirus Type 49
[2] = Table I, concentration with change in morphology in 25% of WI38 cells
[3] = Table I, WI38 cells, 33° C., 3-4 days, NA = Not active, read-out: MIC50 Rhinovirus 1A
[4] = Table I, WI38 cells, 33° C., 3-4 days, read-out: MIC50 Rhinovirus 39

Row | Compound | IC50 (Coxsacki-B4) [µg/mL] | IC50 (Rhinovirus 17) [µg/mL] | IC50 (Coxsacki-A21) [µg/mL] | Toxicity (WI38 cells; [2]) [µg/mL] | Toxicity (WI38 cells; Table II) [µg/mL] | Toxicity (WI38 cells; Table III) [µg/mL] | EC50 (Rhinovirus 36) [µg/mL] | EC50 (Rhinovirus 1A; [3]) [µg/mL] | EC50 (Rhinovirus 53) [µg/mL] | IC50 (Rhinovirus 4) [µg/mL] | IC50 (Rhinovirus 23) [µg/mL] | IC50 (Rhinovirus 29) [µg/mL] | EC50 (Rhinovirus 86) [µg/mL] | IC50 (Echo-7) [µg/mL] | All Enterovirus Serotypes (number of serotypes active / tested) (Enterovirus serotypes) | IC50 (Rhinovirus 15) [µg/mL] | EC50 (Rhinovirus 31) [µg/mL] | IC50 (Rhinovirus 30) [µg/mL] | IC50 (Echo-11) [µg/mL] | IC50 (Rhinovirus 2) [µg/mL] | further results
1 | Cc1cc(CCCCCCCOc2ccc3oc4ccccc4c3c2)on1 [Compound 5] | > 25 | 10 (≈ 27.5 µM) | 5 (≈ 13.8 µM) | 100 | 100 | 100 | > 25 | 5 (≈ 13.8 µM) | 10 (≈ 27.5 µM) | < 0.5 | 5 (≈ 13.8 µM) | 5 (≈ 13.8 µM) | 0.5 (≈ 1.38 µM) | 25 (≈ 68.8 µM) | 5 | 5 (≈ 13.8 µM) | 10 (≈ 27.5 µM) | 0.5 (≈ 1.38 µM) | > 25 | > 25 | inhibitory activity against HRV-1A and HRV-39 in vitro (HRV-1A and HRV-39): remarkably inhibitory activity; inhibitory activity against the members of the Entero virus family (Enterovirus serotypes): remarkable inhibitory activity; EC50 (Rhinovirus 56): 5 µg/mL (≈ 13.8 µM); EC50 (Rhinovirus 39; [4]): 1 µg/mL (≈ 2.75 µM); IC50 (Coxsacki-B1): 10 µg/mL (≈ 27.5 µM); EC50 (Rhinovirus 32): 25 µg/mL (≈ 68.8 µM); EC50 (Coxsacki-A9): 5 µg/mL (≈ 13.8 µM); EC50 (Polio 1): 10 µg/mL (≈ 27.5 µM); All Rhinovirus Serotypes (number of serotypes active / tested) [1]: 17; IC50 (Rhinovirus 1B): 5 µg/mL (≈ 13.8 µM); EC50 (Rhinovirus 44): < 0.5 µg/mL; EC50 (Rhinovirus 63): 10 µg/mL (≈ 27.5 µM); EC50 (Rhinovirus 88): 0.5 µg/mL (≈ 1.38 µM); EC50 (Rhinovirus 49): > 25 µg/mL
2 | Cc1cc(CCCCCCCOc2cc(C)nc3ccccc23)on1 [Compound 9, 5-[7-(2-methylquinolin-4-yl)oxyheptyl]-3-methisoxazole] | 10 (≈ 29.5 µM) | > 25 | 10 (≈ 29.5 µM) | 50 | 50 | 50 | 10 (≈ 29.5 µM) | 5 (≈ 14.8 µM) | 5 (≈ 14.8 µM) | 10 (≈ 29.5 µM) | 5 (≈ 14.8 µM) | 5 (≈ 14.8 µM) | 5 (≈ 14.8 µM) | > 25 | 2 | 5 (≈ 14.8 µM) | 1 (≈ 2.95 µM) | 0.5 (≈ 1.48 µM) | > 25 | 1 (≈ 2.95 µM) | inhibitory activity against HRV-1A and HRV-39 in vitro (HRV-1A and HRV-39): remarkably inhibitory activity; inhibitory activity against the members of the Entero virus family (Enterovirus serotypes): remarkable inhibitory activity; EC50 (Rhinovirus 56): 5 µg/mL (≈ 14.8 µM); EC50 (Rhinovirus 39; [4]): 1 µg/mL (≈ 2.95 µM); EC50 (Rhinovirus 39; Table II, read-out: MIC 50 Rhinovirus Type 39): 5 µg/mL (≈ 14.8 µM); IC50 (Coxsacki-B1): > 25 µg/mL; EC50 (Rhinovirus 32): 10 µg/mL (≈ 29.5 µM); EC50 (Coxsacki-A9): > 25 µg/mL; EC50 (Polio 1): > 25 µg/mL; All Rhinovirus Serotypes (number of serotypes active / tested) [1]: 19; IC50 (Rhinovirus 1B): 10 µg/mL (≈ 29.5 µM); EC50 (Rhinovirus 44): 1 µg/mL (≈ 2.95 µM); EC50 (Rhinovirus 63): 5 µg/mL (≈ 14.8 µM); EC50 (Rhinovirus 88): < 0.5 µg/mL; EC50 (Rhinovirus 49): 10 µg/mL (≈ 29.5 µM)
3 | Cc1cnsc1CCCCCCOc1ccc2oc3ccccc3c2c1 [Compound 19] | > 25 | > 25 | 10 (≈ 27.4 µM) | 50 | 50 | 50 | > 25 | 10 (≈ 27.4 µM) | 10 (≈ 27.4 µM) | > 25 | 10 (≈ 27.4 µM) | 10 (≈ 27.4 µM) | 10 (≈ 27.4 µM) | 25 (≈ 68.4 µM) | 4 | 10 (≈ 27.4 µM) | > 25 | 0.5 (≈ 1.37 µM) | > 25 | 10 (≈ 27.4 µM) | inhibitory activity against HRV-1A and HRV-39 in vitro (HRV-1A and HRV-39): remarkably inhibitory activity; inhibitory activity against the members of the Entero virus family (Enterovirus serotypes): remarkable inhibitory activity; EC50 (Rhinovirus 56): 10 µg/mL (≈ 27.4 µM); EC50 (Rhinovirus 39; [4]): 5 µg/mL (≈ 13.7 µM); IC50 (Coxsacki-B1): 5 µg/mL (≈ 13.7 µM); EC50 (Rhinovirus 32): > 25 µg/mL; EC50 (Coxsacki-A9): 10 µg/mL (≈ 27.4 µM); EC50 (Polio 1): > 25 µg/mL; All Rhinovirus Serotypes (number of serotypes active / tested) [1]: 14; IC50 (Rhinovirus 1B): 5 µg/mL (≈ 13.7 µM); EC50 (Rhinovirus 44): < 0.5 µg/mL; EC50 (Rhinovirus 63): 10 µg/mL (≈ 27.4 µM); EC50 (Rhinovirus 88): 1 µg/mL (≈ 2.74 µM); EC50 (Rhinovirus 49): > 25 µg/mL
4 | Cc1cc(CCCCCCCOc2ccc(C3=NCCO3)cc2)on1 [Disoxaril, reference compound] | 10 (≈ 29.2 µM) | < 0.5 | 5 (≈ 14.6 µM) | 50 | 50 | 50 | > 25 | 10 (≈ 29.2 µM) | 25 (≈ 73 µM) | 0.5 (≈ 1.46 µM) | 10 (≈ 29.2 µM) | 10 (≈ 29.2 µM) | 0.5 (≈ 1.46 µM) | 5 (≈ 14.6 µM) | 7 | 5 (≈ 14.6 µM) | 25 (≈ 73 µM) | 0.5 (≈ 1.46 µM) | 5 (≈ 14.6 µM) | > 25 | EC50 (Rhinovirus 1A; Table II, one of seven commonest serotypes, read-out: MIC 50 Rhinovirus Type 1A): 25 µg/mL (≈ 73 µM); EC50 (Rhinovirus 56): 25 µg/mL (≈ 73 µM); EC50 (Rhinovirus 39; [4]): 5 µg/mL (≈ 14.6 µM); IC50 (Coxsacki-B1): 10 µg/mL (≈ 29.2 µM); EC50 (Rhinovirus 32): 10 µg/mL (≈ 29.2 µM); EC50 (Coxsacki-A9): 5 µg/mL (≈ 14.6 µM); EC50 (Polio 1): 5 µg/mL (≈ 14.6 µM); All Rhinovirus Serotypes (number of serotypes active / tested) [1]: 17; IC50 (Rhinovirus 1B): 25 µg/mL (≈ 73 µM); EC50 (Rhinovirus 44): < 0.5 µg/mL; EC50 (Rhinovirus 63): 25 µg/mL (≈ 73 µM); EC50 (Rhinovirus 88): < 0.5 µg/mL; EC50 (Rhinovirus 49): > 25 µg/mL
